pIC50: −log10 of the molar value. Active and inactive are the calls of the source. The calls are words filed in the database; no cut-off is given here.

A word on the Vd: it is the apparent volume that relates the amount in the body to the concentration in plasma or blood. The pIC50 is −log10 of the IC50, conventionally taken in molar units. Usually half-life stands for the time in which the quantity being followed falls by half. The term clearance denotes the volume of plasma or blood freed of the substance per unit of time. By AUC(0-inf) is commonly meant the area under the concentration-time curve extrapolated to infinity.

Test system in one data set: not listed separately
Nature of the data set: Volume of distribution in rat at 1 mg/kg, iv. Type of data set: ADME, organism-based. To be noted: in vivo.
`Cc1cc(C(=O)O)nn1Cc1cc(Cl)cc2sc(N3CC=CCC3)nc12`: the Vd came to 0.184 L/kg.

For a further data set, the target named is T1, Prostaglandin E2 receptor EP1 subtype (Rattus norvegicus, UniProt P70597).
T1 sequence (P70597 whole entry): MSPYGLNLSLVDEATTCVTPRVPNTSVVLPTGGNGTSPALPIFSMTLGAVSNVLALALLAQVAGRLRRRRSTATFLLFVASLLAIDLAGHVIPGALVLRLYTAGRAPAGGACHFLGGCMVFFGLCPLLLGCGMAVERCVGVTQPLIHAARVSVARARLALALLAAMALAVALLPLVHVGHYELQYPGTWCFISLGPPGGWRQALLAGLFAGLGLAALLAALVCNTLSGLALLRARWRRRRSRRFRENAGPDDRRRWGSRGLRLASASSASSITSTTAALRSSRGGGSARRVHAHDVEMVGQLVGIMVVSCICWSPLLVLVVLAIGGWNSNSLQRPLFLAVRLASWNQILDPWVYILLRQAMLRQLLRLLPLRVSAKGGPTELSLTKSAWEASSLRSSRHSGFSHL
Description: Antagonist activity at rat EP1 receptor expressed in African green monkey COS1 cells assessed as inhibition of prostaglandin-E2-induced increase in intracellular calcium level preincubated for 60 secs followed by prostaglandin-E2 addition measured for 60 secs by Fluo 4-AM dye based fluorescence assay.
Conditions: not given
Type of data set: functional, cell-based. (Calcium assays in cells follow changes in intracellular calcium, usually with a dye or a luminescent sensor.)
On to `Cc1cc(C(=O)O)nn1Cc1cccc2sc(N3CC=CCC3)nc12`, for which the negative logarithm of the IC50 (pIC50) was 7.49.

`Cc1cc(C(=O)O)nn1Cc1cc(C(=O)O)cc2sc(N3CC=CCC3)nc12`: the negative-log IC50 (pIC50) was 5.10.

On to `C=C(C)c1cc(Cn2nc(C(=O)O)cc2C)c2nc(N3CC=CCC3)sc2c1`, for which the pIC50 was 6.80.

As to `Cc1cc(C(=O)O)nn1Cc1cc(Cl)cc2sc(N3CCCC3)nc12`, the pIC50 is 7.52.

Regarding `Cc1cc(C(=O)O)nn1Cc1cc(Cl)cc2sc(C3CCCCC3)nc12`, the negative-log IC50 (pIC50) is 6.37.

On to `CC(=O)c1cc(Cn2nc(C(=O)O)cc2C)c2nc(N3CC=CCC3)sc2c1`, for which the negative logarithm of the IC50 (pIC50) is 6.70.

In the case of `Cc1cc(C(=O)O)nn1Cc1cc(Cl)cc2sc(-c3ccccc3)nc12`, the pIC50 is 7.51.

Take `CNc1cc(Cn2nc(C(=O)O)cc2C)c2nc(N3CC=CCC3)sc2c1`: the pIC50 was 5.06.

For the compound `CCN(CC)c1nc2c(Cn3nc(C(=O)O)cc3C)cc(Cl)cc2s1`, the pIC50 was 8.21.

Regarding `CCN(C)c1nc2c(Cn3nc(C(=O)O)cc3C)cc(Cl)cc2s1`, the pIC50 was 7.89.

On to `Cc1cc(C(=O)O)nn1Cc1cc(N(C)C)cc2sc(N3CC=CCC3)nc12`, for which the pIC50 is 6.68.

For `Cc1cc(C(=O)O)nn1Cc1cc(Cl)cc2sc(N3CCCCC3)nc12`, the negative logarithm of the IC50 (pIC50) is 7.37.

Turning to `Cc1cc(C(=O)O)nn1Cc1cc(F)cc2sc(N3CC=CCC3)nc12`, the negative logarithm of the IC50 (pIC50) is 7.77.

`O=C(O)c1ccc(Oc2cc(Cl)cc3sc(N4CC=CCC4)nc23)o1`: the pIC50 was 6.82.

`CNc1nc2c(Cn3nc(C(=O)O)cc3C)cc(Cl)cc2s1`: the pIC50 was 6.33.

As for `O=C(O)c1ccn(Cc2cc(Cl)cc3sc(N4CC=CCC4)nc23)n1`, the pIC50 was 7.29.

Consider `C=C(C)c1nc2c(Cn3nc(C(=O)O)cc3C)cc(Cl)cc2s1`, for which the pIC50 was 7.48.

Regarding `Cc1cc(C(=O)O)nn1Cc1cc(Cl)cc2sc(N3CCN(C)CC3)nc12`, the pIC50 was 5.31.

`COc1cc(Cn2nc(C(=O)O)cc2C)c2nc(N3CC=CCC3)sc2c1`: the pIC50 was 7.43.

For `Cc1cc(C(=O)O)nn1Cc1cc(N)cc2sc(N3CC=CCC3)nc12`, the pIC50 was 5.11.

As to `Cc1cc(C(=O)O)nn1Cc1cc(Cl)cc2nc(-c3ccccc3)oc12`, the negative logarithm of the IC50 (pIC50) was 6.12.

For `Cc1cc(C(=O)O)nn1Cc1cc(Br)cc2sc(N3CC=CCC3)nc12`, the pIC50 was 7.66.

`Cc1cc(C(=O)O)nn1Cc1cc(Cl)cc2sc(N(C)C)nc12`: the pIC50 was 7.00.

On to `O=C(O)c1ccc(Cc2cc(Cl)cc3sc(N4CC=CCC4)nc23)o1`, for which the negative logarithm of the IC50 (pIC50) is 7.22.

`Cc1cc(C(=O)O)nn1Cc1cc(Cl)cc2sc(N3CC=CC3)nc12`: the pIC50 was 6.96.

For the compound `Cc1cc(Cn2nc(C(=O)O)cc2C)c2nc(N3CC=CCC3)sc2c1`, the negative logarithm of the IC50 (pIC50) was 5.60.

As for `CC1=CCN(c2nc3c(Cn4nc(C(=O)O)cc4C)cc(Cl)cc3s2)CC1`, the pIC50 is 7.19.

`Cc1cc(C(=O)O)nn1Cc1cc(Cl)cc2nc(-c3ccccc3)sc12`: the pIC50 is 5.10.

Consider `Cc1cc(C(=O)O)nn1Cc1cc(Cl)cc2sc(N3CCSCC3)nc12`, for which the pIC50 was 7.18.

As for `Cc1cc(C(=O)O)nn1Cc1cc(Cl)cc2sc(N3CCOCC3)nc12`, the pIC50 is 7.20.

On to `CC1=CCCN(c2nc3c(Cn4nc(C(=O)O)cc4C)cc(Cl)cc3s2)C1`, for which the pIC50 is 7.52.

For `Cc1cc(C(=O)O)nn1Cc1cc(Cl)cc2sc(C3=CCCCC3)nc12`, the negative-log IC50 (pIC50) is 6.96.

For `Cc1cc(C(=O)O)nn1Cc1cc(Cl)cc2sc(N3CCC3)nc12`, the negative logarithm of the IC50 (pIC50) was 6.49.

Take `CCCN(CC)c1nc2c(Cn3nc(C(=O)O)cc3C)cc(Cl)cc2s1`: the negative-log IC50 (pIC50) was 6.57.

Take `Cc1cc(C(=O)O)nn1Cc1cc(Cl)cc2sc(N3CCS(=O)(=O)CC3)nc12`: the pIC50 was 5.38.

Turning to `O=C(O)c1ccn(Cc2cc(Cl)cc3sc(N4CC=CCC4)nc23)c1`, the pIC50 was 6.62.

Regarding `Cc1cc(C(=O)O)nn1Cc1cc(C#N)cc2sc(N3CC=CCC3)nc12`, the pIC50 is 6.64.

As for `Cc1cc(C(=O)O)nn1Cc1cc(Cl)cc2sc(N3CCCCCC3)nc12`, the pIC50 is 6.57.

As for `CC1=C(C)CN(c2nc3c(Cn4nc(C(=O)O)cc4C)cc(Cl)cc3s2)CC1`, the pIC50 is 5.28.

For `C=Cc1cc(Cn2nc(C(=O)O)cc2C)c2nc(N3CC=CCC3)sc2c1`, the pIC50 was 8.00.

With `Cc1cc(C(=O)O)nn1Cc1cc(Cl)cc2oc(-c3ccccc3)nc12`, the pIC50 is 5.06.

Turning to `O=C(O)c1ccc(Sc2cc(Cl)cc3sc(N4CC=CCC4)nc23)o1`, the pIC50 was 8.19.

As for `Cc1cc(C(=O)O)nn1Cc1cc(OC(F)(F)F)cc2sc(N3CC=CCC3)nc12`, the pIC50 was 7.01.

As for `Cc1cc(C(=O)O)nn1Cc1cc(Cl)cc2sc(N3CC=CCC3)nc12`, the pIC50 was 8.96.

Test system in a further data set: not listed separately
Nature of the data set: Half life in rat at 1 mg/kg, iv. Type of data set: ADME, organism-based. The settings on record: in vivo.
As for `Cc1cc(C(=O)O)nn1Cc1cc(Cl)cc2sc(N3CC=CCC3)nc12`, the half-life is 40.7 min.

Test system in another data set: not listed separately
Description: Total clearance in rat at 1 mg/kg, iv. Type of data set: ADME, organism-based. To be noted: in vivo.
For the compound `Cc1cc(C(=O)O)nn1Cc1cc(Cl)cc2sc(N3CC=CCC3)nc12`, the clearance is 3.79 mL/min/kg.

Test system in the next data set: not listed separately
Nature of the data set: AUC (0 to infinity) in rat at 1 mg/kg, iv. Type of data set: ADME, organism-based. Also on record: dose 1 mg/kg, time infinity, route intravenous. The settings on record: in vivo.
The compound `Cc1cc(C(=O)O)nn1Cc1cc(Cl)cc2sc(N3CC=CCC3)nc12` showed an AUC(0-inf) of 4480 ng·h/mL.

The next data set has as its system Rattus norvegicus. Description: Inhibition of 17-PTP-induced increase in intravesical pressure in intraduodenally dosed rat overactive bladder model pretreated for 5 mins followed by 17-PTP treatment with 30 mins time interval for 245 mins. Type of data set: functional, organism-based.
Conditions: not given
Regarding `Cc1cc(C(=O)O)nn1Cc1cc(Cl)cc2sc(-c3ccccc3)nc12`, the inhibition entry is “inactive”.

Regarding `Cc1cc(C(=O)O)nn1Cc1cc(Cl)cc2sc(N3CC=CCC3)nc12`, the inhibition result was “Dose-dependent effect”.

Test system in another data set: not listed separately
Nature of the data set: Initial concentration in rat at 1 mg/kg, iv. The class given is ADME, organism-based. To be noted: in vivo.
For the compound `Cc1cc(C(=O)O)nn1Cc1cc(Cl)cc2sc(N3CC=CCC3)nc12`, the C0 stood at 6000 ng/mL.

Test system in a further data set: not listed separately
Description: Chemical stability of the compound in pH 1 acidic aqueous medium. The class given is physicochemical. To be noted: buffer.
As for `Cc1cc(C(=O)O)nn1Cc1cc(Cl)cc2sc(N3CC=CCC3)nc12`, the Stability entry was “Stable”.

(Values after ChEMBL document CHEMBL4033675, “Identification of novel 1,2,3,6-tetrahydropyridyl-substituted benzo[d]thiazoles: Lead generation and optimization toward potent and orally active EP1 receptor antagonists” (Bioorg Med Chem, 2017).)
